Measured values reported in patent US20160279135A1, “THERAPIES FOR TREATING MYELOPROLIFERATIVE DISORDERS” (Gilead Sciences, Inc., priority 2013, published 2016).
“And” between values parts separate entries of the source, which are not always exact repeats. Equal values may be shown once.

Legend:
Pfeiffer cells = test: CellTiter-Glo cell viability of Pfeiffer cells with IL6; assay type: cell-based; details: Homo sapiens, 96 h, IL6 3 ng/mL, n=4, read-out: percentage of viable Pfeiffer cells, AVG
Protocol: Next, Pfeiffer cells were treated with IL6 (0 or 3 ng/mL), Compound A (0, 136, 272, or 695 nM), and/or Compound B (0, 74, 200, or 421 nM) (n=4 per group) for 96 hours.
Cellular viability was determined using the CellTiter-Glo Luminescent Cell Viability Assay (Promega). The percentage of viable cells was normalized to the groups that were not treated with Compound A or Compound B, and standard deviation was calculated.

clinical = details: human, in vivo
From the text: For in vitro or in vivo studies, the effect amount of Compounds A, B, C, D, E, or ruxolinitib may be adjusted according to the experimental condition. Similarly, the effect amount of Compounds D1, D2, D3, D4, D5, D6, D7, D8, D9, E1, E2, E3, E4, E5, E6, E7, E8, E9, or F, may be adjusted according to the experimental condition for in vitro or in vivo studies. For example, compounds may be used in the amount of 0.001, 0.002, 0.003, 0.004, 0.005, 0.006, 0.007, 0.008, 0.009, 0.01, 0.02, 0.03, 0.04, 0.05, 0.06, 0.07, 0.08, 0.09, 0.1, 0.2, 0.3, 0.4, 0.5, 0.6, 0.7, 0.8, 0.9, 1.0, 1.5, 2.0, 2.5, 3.0, 3.5, 4.0, 5.0, 6.0, 7.0, 8.0, 9.0, or 10.0 μM. In some studies, the in vitro doses of the compounds may be calculated to correspond to the clinical doses of the compounds. The calculation may consider various factors, such as protein binding and plasma concentration. […] It is understood that the in vitro doses may differ, depend on the assay condition and other calculation factors, and that the clinical doses may differ depend on the disease indication and the patient condition.
(§1) In this study, PBMCs were isolated from the whole blood from five MF patients receiving chronic ruxolitinib treatment (rux 1-rux 5). The cells were treated with either vehicle, ruxolitinib, and/or Compound B for 2 hours then stimulated with TPO (50 ng/mL) for 10 minutes. Ruxolitinib at the dose of 1 or 20 nM and Compound B at the dose of 45, 200, or 700 nM were used.
Next, Pfeiffer cells were treated with IL6 (0 or 3 ng/mL), Compound A (0, 136, 272, or 695 nM), and/or Compound B (0, 74, 200, or 421 nM) (n=4 per group) for 96 hours. The doses in this assay may correspond to those used in a clinical setting. […] In addition, the in-vitro dose of 136 nM Compound A may correspond to the potential Caverage detected in patients receiving Compound A at 300 mg once a day.

p-AKT Ser473 = test: flow cytometry of AKT phosphorylation in CD34+ progenitor cells from MF patients; assay type: cell-based, human; details: 2 h, MF progenitor cells
Protocol: (§2) In this example, PBMCs were isolated from whole blood of myelofibrosis (MF) patients who had not received treatments (i.e. naïve patients) or received ruxolitinib (i.e. rux-treated patients). The cells were treated with 0.02, 0.2, or 2.0 μM of Compound B or vehicle (0.1% DMSO in 0.1% FBS/RPMI) for 2 hours at 37° C. The cells were then fixed, permeabilized, and stained for FACS analysis. Antibodies specific to p-AKT Ser473 and pS6RP Ser235/236 were used to detect AKT phosphorylation (p-AKT) and S6RP phosphorylation (p-S6RP) in CD34^+/CD3^−/CD14^−/CD19/CD66^− (BD Biosciences) gated cells using flow cytometry. The percentage of basal (i.e. untreated with TPO) AKT and S6RP phosphorylation were normalized to vehicle control (i.e. “no TPO” values shown in Table 2). A two-tailed paired t-test (GraphPad Prism) was used to calculate p-values. Values of p<0.05 were considered significant.
(§3) Also, PBMC cells were treated with Compound B and with TPO as described above. The percentage of TPO-activated AKT and S6RP phosphorylation were normalized to those of TPO-treated vehicle. […] Also, the inhibition to PI3K signaling was dose-dependent to Compound B.
(§4) Similar studies were conducted with PI3K inhibitors Compounds C and D. PBMC from MF patients had received ruxolitinib (rux) and MF patient had received Compound A. The cells were treated with Compounds C or D at 0, 20.0, 200.0, 2000.0 nM for 2 hours at 37° C. Cells were treated with TPO for 10 minutes. The percentage of basal p-AKT and p-S6RP levels were normalized to vehicle control and those of TPO-treated were normalized to TPO-treated vehicle control. The PI3K inhibitors Compounds C and D had the chemical names of (S)-2-(1-((9H-purin-6-yl)amino)ethyl)-6-fluoro-3-phenylquinazolin-4(3H)-one and (S)-2,4-diamino-6-(((5-chloro-8-fluoro-4-oxo-3-(pyridine-3-yl)-3,4-dihydroquinazolin-2-yl)(cyclopropyl)methyl)amino)pyrimidine-5-carbonitrile, respectively.

pS6RP Ser235/236 = test: flow cytometry of S6RP phosphorylation in CD34+ progenitor cells from MF patients; assay type: cell-based, human; details: 2 h, MF progenitor cells
Protocol: as §2, §3, §4

p-S6RP = test: flow cytometry of p-S6RP in TPO-stimulated CD34+ cells from MF patients on chronic ruxolitinib (Example 8); assay type: cell-based, human; details: for percentage of the p-S6RP levels: 2 h, then TPO 50 ng/mL, one value per patient, TPO vehicle = 100
Protocol: as §1
(§5) The treated cells were then fixed, permeabilized and stained for FACS analysis using FACSCalibur analyzed using BD FACSDiva software.

p-STAT5 = test: flow cytometry of p-STAT5 in TPO-stimulated CD34+ cells from MF patients on chronic ruxolitinib (Example 8); assay type: cell-based, human; details: 2 h, then TPO 50 ng/mL, one value per patient, TPO vehicle = 100
Protocol: as §1, §5

pSTAT3 (Tyr705) = test: Western blot of pSTAT3 in IL6-stimulated Pfeiffer cells; assay type: cell-based; details: vs 0 ng/mL IL6, normalized to total STAT3, n=1
Protocol: Pfeiffer cells were stimulated for 4 hours with 0, 1, 3, or 10 ng/mL of interleukin 6 (IL6) (n=1 per group) to activate STAT3 (i.e. increase the levels of pSTAT3). The cells were harvested, lysed and analyzed by Western blot. Antibodies specific for pSTAT3 (Tyr705) and total STAT3 were used to detect the levels of pSTAT3 and total STAT3, respectively. Raw pSTAT3 levels were quantified using densitometry software (Image Studio) and normalized to total STAT3 levels.

[1] = 20 nM, Basal, Compound A-treated Cells, vehicle = 100
[2] = 20 nM, Basal, Rux-treated Cells, vehicle = 100
[3] = 20 nM, TPO 10 min, Compound A-treated Cells, TPO-treated vehicle = 100
[4] = 20 nM, TPO 10 min, Rux-treated Cells, TPO-treated vehicle = 100
[5] = 200 nM, Basal, Compound A-treated Cells, vehicle = 100
[6] = 200 nM, Basal, Rux-treated Cells, vehicle = 100
[7] = 200 nM, TPO 10 min, Compound A-treated Cells, TPO-treated vehicle = 100
[8] = 200 nM, TPO 10 min, Rux-treated Cells, TPO-treated vehicle = 100
[9] = 2000 nM, Basal, Compound A-treated Cells, vehicle = 100
[10] = 2000 nM, Basal, Rux-treated Cells, vehicle = 100
[11] = 2000 nM, TPO 10 min, Compound A-treated Cells, TPO-treated vehicle = 100
[12] = 2000 nM, TPO 10 min, Rux-treated Cells, TPO-treated vehicle = 100

Compound | percentage of p-AKT (pAKT) (p-AKT Ser473; [1]) | percentage of p-AKT (pAKT) (p-AKT Ser473; [2]) | percentage of p-AKT (pAKT) (p-AKT Ser473; [3]) | percentage of p-AKT (pAKT) (p-AKT Ser473; [4]) | percentage of p-AKT (pAKT) (p-AKT Ser473; [5]) | percentage of p-AKT (pAKT) (p-AKT Ser473; [6]) | percentage of p-AKT (pAKT) (p-AKT Ser473; [7]) | percentage of p-AKT (pAKT) (p-AKT Ser473; [8]) | percentage of p-AKT (pAKT) (p-AKT Ser473; [9]) | percentage of p-AKT (pAKT) (p-AKT Ser473; [10]) | percentage of p-AKT (pAKT) (p-AKT Ser473; [11]) | percentage of p-AKT (pAKT) (p-AKT Ser473; [12]) | percentage of p-S6RP (pS6) (pS6RP Ser235/236; [1]) | percentage of p-S6RP (pS6) (pS6RP Ser235/236; [2]) | percentage of p-S6RP (pS6) (pS6RP Ser235/236; [3]) | percentage of p-S6RP (pS6) (pS6RP Ser235/236; [4]) | percentage of p-S6RP (pS6) (pS6RP Ser235/236; [5]) | percentage of p-S6RP (pS6) (pS6RP Ser235/236; [6]) | percentage of p-S6RP (pS6) (pS6RP Ser235/236; [7]) | percentage of p-S6RP (pS6) (pS6RP Ser235/236; [8]) | further results
N#CCNC(=O)c1ccc(-c2ccnc(Nc3ccc(N4CCOCC4)cc3)n2)cc1 [Compound A, N-(cyanomethyl)-4-[2-(4-morpholinoanilino)pyrimidin-4-yl]benzamide] | – | – | – | – | – | – | – | – | – | – | – | – | – | – | – | – | – | – | – | – | viability at 0.136 µM (Pfeiffer cells; 136 nM Compound A): 104%; viability at 0.272 µM (Pfeiffer cells; 272 nM Compound A): 99%; viability at 0.695 µM (Pfeiffer cells; 695 nM Compound A): 73%; Cmax (clinical; 300 mg): 695 nM
C[C@H](Nc1ncnc2[nH]cnc12)c1nc2ccc(F)cc2c(=O)n1-c1ccccc1 [Compound C, (S)-2-(1-((9H-purin-6-yl)amino)ethyl)-6-fluoro-3-phenylquinazolin-4(3H)-one] | 89% | 88% | 65% | 65% | 82% | 90% | 59% | 53% | 75% | 75% | 43% | 24% | 82% | 65% | 66% | 84% | 75% | 59% | 70% | 62% | percentage of p-S6RP (pS6) (pS6RP Ser235/236; [9]): 53%; percentage of p-S6RP (pS6) (pS6RP Ser235/236; [10]): 43%; percentage of p-S6RP (pS6) (pS6RP Ser235/236; [11]): 36%; percentage of p-S6RP (pS6) (pS6RP Ser235/236; [12]): 42%
N#Cc1c(N)nc(N)nc1N[C@H](c1nc2c(F)ccc(Cl)c2c(=O)n1-c1cccnc1)C1CC1 [Compound D, (S)-2,4-diamino-6-(((5-chloro-8-fluoro-4-oxo-3-(pyridine-3-yl)-3,4-dihydroquinazolin-2-yl)(cyclopropyl)methyl)amino)pyrimidine-5-carbonitrile] | 87% | 83% | 49% | 58% | 57% | 85% | 41% | 50% | 60% | 76% | 19% | 39% | 58% | 58% | 74% | 48% | 48% | 50% | 55% | 39% | percentage of p-S6RP (pS6) (pS6RP Ser235/236; [9]): 18%; percentage of p-S6RP (pS6) (pS6RP Ser235/236; [10]): 39%; percentage of p-S6RP (pS6) (pS6RP Ser235/236; [11]): 25%; percentage of p-S6RP (pS6) (pS6RP Ser235/236; [12]): 19%
N#CC[C@H](C1CCCC1)n1cc(-c2ncnc3[nH]ccc23)cn1 [ruxolitinib, reference compound] | – | – | – | – | – | – | – | – | – | – | – | – | – | – | – | – | – | – | – | – | inhibition at 0.02 µM (p-S6RP; Homo sapiens, ruxolitinib 20 nM alone, TPO-stimulated cells, read-out: p-S6RP levels inhibited or reduced by): 69%; pS6RP levels inhibited (p-S6RP; ruxolitinib 1 nM alone, TPO-stimulated cells): not inhibited; percentage of the p-S6RP levels (p-S6RP; ruxolitinib 1 nM): 101% and 78% and 92% and 129% and 75%; percentage of the p-S6RP levels (p-S6RP; ruxolitinib 20 nM): 42% and 25% and 22% and 34% and 28%; percentage of the p-STAT5 levels (p-STAT5; ruxolitinib 1 nM): 83% and 94% and 97% and 68% and 91%; percentage of the p-STAT5 levels (p-STAT5; ruxolitinib 20 nM): 77% and 63% and 74% and 71% and 62%; in vitro dose corresponding to the Cmin (clinical): 1 nM; Cmax (clinical; 15 mg): 20 nM
IL6: interleukin 6 (IL6) used to activate STAT3 in Pfeiffer cells | – | – | – | – | – | – | – | – | – | – | – | – | – | – | – | – | – | – | – | – | increase of pSTAT3 levels (STAT3 activation) (pSTAT3 (Tyr705); 1 ng/mL IL6, 4 h): 2.8 fold; increase of pSTAT3 levels (STAT3 activation) (pSTAT3 (Tyr705); 3 ng/mL IL6, 4 h): 3.8 fold; increase of pSTAT3 levels (STAT3 activation) (pSTAT3 (Tyr705); 10 ng/mL IL6, 4 h): 2.5 fold
